Experimental findings from US4605641A, “Synthetic vasoactive intestinal peptide analogs” (Hoffmann-La Roche Inc., priority 1984, dated 1986) are described below.

Molecules are shown by their SMILES. Peptide text beside a SMILES is read from it.

The test deals with guinea pig trachea smooth muscle. As to the kind of experiment: Bronchodilator (relaxant) effect on isolated guinea pig tracheal rings. The test is classed as cell-based. The note with it: for Relative Potency: guinea pig trachea, relative to VIP = 100%; for EC50: guinea pig tracheal rings, relaxation as % of maximum response to VIP 10^-6 M, three tissues pooled, linear regression, read-out: EC50 (M), agonist activity, bronchodilator effect. An excerpt:
The bronchodilatory effect of VIP analogs was studied in a model utilizing guinea pig trachea. Wasserman, M. A. et al. "Comparative In Vitro Tracheal Relaxant Effects of Porcine and Hen VIP" in Vasoactive Intestinal Peptide ed. Said, S.I., Raven Press (New York, 1982).
All tissues were taken from male albino guinea pigs weighing 400-600 g, anesthetized with urethane 2 g/kg i.p. After exsanguination the trachea was removed and divided into four ring segments (3 mm length). Each ring was suspended by two 30 guage stainless steel wires in a 10 ml jacket tissue bath and attached via 4-0 silk thread to a Grass force displacement transducer (model FT03C, Grass Instrument Co., Quincy, MA), for isometric recording of tension. The smooth muscle was bathed in modified Krebs solution of the following composition: NaCl, 120 mM; KCl, 4.7 mM; CaCl2, 2.5 mM; MgSO4.7H2 O; 1.2 mM; NaHCO3, 25 mM; KH2 PO4 monobasic, 1.2 mM; and dextrose, 10 mM. Tissue baths were maintained at 37.5° C. and constantly bubbled with 95% O2 and 5% CO2. Responses were recorded on an 8 channel and 4 channel Hewlett-Packard (model 7702B and 7754A, respectively) recorder (Hewlett Packard, Paramus, NJ). Tracheal rings were placed under a resting tension of 1.5 g which was determined to be at or near optimal in preliminary experiments. Frequent readjustments of tension were required during the 60 min. stabilization period which followed. Tissues were rinsed at 15 min. intervals.
Cumulative concentration response curves were obtained for each tissue by successive […] in the bath concentration of VIP or potential VIP agonists according to the method of VanRossum J. M., Arch. Int Pharmacodyn, 143, 299-330 (1963). Only one cummulative dose response curve was obtained on a single piece of tissue. To minimize variability between tissues, relaxant responses are expressed as a percentage of the maximum response obtainable to VIP (10^-6 M=100%) added at the end of the concentration response curve. Responses obtained from three tissues were pooled and EC50 values were determined by linear regression.

On to `CCCC[C@H](NC(=O)[C@H](CCC(N)=O)NC(=O)[C@H](CCCCN)NC(=O)[C@H](CCCNC(=N)N)NC(=O)[C@H](CC(C)C)NC(=O)[C@H](CCCNC(=N)N)NC(=O)[C@@H](NC(=O)[C@H](Cc1ccc(O)cc1)NC(=O)[C@H](CC(N)=O)NC(=O)[C@H](CC(=O)O)NC(=O)[C@@H](NC(=O)[C@H](Cc1ccccc1)NC(=O)[C@@H](NC(=O)[C@H](C)NC(=O)[C@H](CC(=O)O)NC(=O)[C@H](CO)NC(=O)[C@@H](N)Cc1c[nH]cn1)C(C)C)[C@@H](C)O)[C@@H](C)O)C(=O)N[C@@H](C)C(=O)N[C@H](C(=O)N[C@@H](CCCCN)C(=O)N[C@@H](CCCCN)C(=O)N[C@@H](Cc1ccc(O)cc1)C(=O)N[C@@H](CC(C)C)C(=O)N[C@@H](CC(N)=O)C(=O)N[C@@H](CO)C(=O)N[C@H](C(=O)N[C@@H](CC(C)C)C(=O)N[C@H](C(N)=O)[C@@H](C)O)C(C)C)C(C)C` [(Nle^17, Val^26, Thr^28)--VIP, (Nle^17, Val^26, Thr^28)VIP] (HELM PEPTIDE1{H.S.D.A.V.F.T.D.N.Y.T.R.L.R.K.Q.[Nle].A.V.K.K.Y.L.N.S.V.L.T.[am]}$$$$V2.0), for which the “Relative Potency” value turned out to be 208% and the EC50 was determined as 4.8e-09 M.

Regarding `CCCC[C@H](NC(=O)[C@H](CCC(N)=O)NC(=O)[C@H](CCCCN)NC(=O)[C@H](CCCNC(=N)N)NC(=O)[C@H](CC(C)C)NC(=O)[C@H](CCCCN)NC(=O)[C@@H](NC(=O)[C@H](Cc1ccc(O)cc1)NC(=O)[C@H](CC(N)=O)NC(=O)[C@H](CC(=O)O)NC(=O)[C@@H](NC(=O)[C@H](Cc1ccccc1)NC(=O)[C@@H](NC(=O)[C@H](C)NC(=O)[C@H](CC(=O)O)NC(=O)[C@H](CO)NC(=O)[C@@H](N)Cc1c[nH]cn1)C(C)C)[C@@H](C)O)[C@@H](C)O)C(=O)N[C@@H](C)C(=O)N[C@H](C(=O)N[C@@H](CCCCN)C(=O)N[C@@H](CCCCN)C(=O)N[C@@H](Cc1ccc(O)cc1)C(=O)N[C@@H](CC(C)C)C(=O)N[C@@H](CC(N)=O)C(=O)N[C@@H](CO)C(=O)N[C@H](C(=O)N[C@@H](CC(C)C)C(=O)N[C@H](C(N)=O)[C@@H](C)O)C(C)C)C(C)C` [(Lys^12, Nle^17, Val^26, Thr^28)--VIP, (Lys^12, Nle^17, Val^26, Thr^28)VIP] (HELM PEPTIDE1{H.S.D.A.V.F.T.D.N.Y.T.K.L.R.K.Q.[Nle].A.V.K.K.Y.L.N.S.V.L.T.[am]}$$$$V2.0), the “Relative Potency” value came to 286% and the EC50 was 3.5e-09 M.

As for `CCCC[C@H](NC(=O)[C@H](CCC(N)=O)NC(=O)[C@H](CCCCN)NC(=O)[C@H](CCCNC(=N)N)NC(=O)[C@H](CC(C)C)NC(=O)[C@H](CCCNC(=N)N)NC(=O)[C@@H](NC(=O)[C@H](Cc1ccc(O)cc1)NC(=O)[C@H](CC(N)=O)NC(=O)[C@H](CC(=O)O)NC(=O)[C@@H](NC(=O)[C@H](Cc1ccccc1)NC(=O)[C@@H](NC(=O)[C@H](C)NC(=O)[C@H](CC(=O)O)NC(=O)[C@H](CO)NC(=O)[C@@H](N)Cc1c[nH]cn1)C(C)C)[C@@H](C)O)[C@@H](C)O)C(=O)N[C@@H](C)C(=O)N[C@H](C(=O)N[C@@H](CCCCN)C(=O)N[C@@H](CCCCN)C(=O)N[C@@H](Cc1ccc(O)cc1)C(=O)N[C@@H](CC(C)C)C(=O)N[C@@H](CC(N)=O)C(=O)N[C@@H](CO)C(=O)N[C@H](C(=O)N[C@@H](CC(C)C)C(=O)N[C@H](C(N)=O)[C@@H](C)O)[C@@H](C)CC)C(C)C` [(Nle^17, Thr^28)--VIP, (Nle^17, Thr^28)VIP] (HELM PEPTIDE1{H.S.D.A.V.F.T.D.N.Y.T.R.L.R.K.Q.[Nle].A.V.K.K.Y.L.N.S.I.L.T.[am]}$$$$V2.0), the “Relative Potency” value stood at 108% and the EC50 was 9.3e-09 M.

One may read the EC50 as the concentration that produces a half-maximal response.
